SMILES strings stand for the structures. Like-named read-outs stand apart in the source and are kept apart here.

A word on the AUC: it is the area under the concentration-time curve, a measure of exposure. Lower therefore signals low exposure. The term MRT denotes a mean duration of stay, worked out from the concentration-time curve. One may read the clearance as a measure of how efficiently the substance is removed, as volume per time. Low values mean inefficient removal, high ones efficient removal. As a reminder, the half-life is the time in which the quantity being followed falls by half. Read a low half-life as fast loss. The bioavailability is the share of a dose that reaches the circulation, judged against a reference dose that is usually intravenous. Low values mean poor availability, high ones good availability. As usually defined, the CL/F is the apparent clearance, not corrected for the fraction that reaches the circulation. The term Vd/F denotes the apparent distribution volume after extravascular dosing. As usually defined, the Cmax is the highest concentration seen after dosing.

Data set [1] can be described thus: in vivo. Conditions: rat, iv, 20 mg/kg. How it is done: (§1) DAI in the form of a suspension in saline was administered to the rats at the doses of 20 mg/kg (i.v.) and 50 mg/kg (i.p.).
Blood samples were collected via a retro-orbital puncture at 15 min, 30 min, 3 h, 5 h, and 24 h after i.v. administration. The first two blood samples (at 15 min and 30 min) were withdrawn while the rats were still under general anesthesia. For the later time-points, the blood was taken under a short isoflurane anesthesia. One mL of saline was administered i.p. after every blood withdrawal to compensate the loss of water. The rats were sacrificed by decapitation 24 h after compound administration. All blood samples were centrifuged to obtain serum. The serum samples were frozen in a freezer at −80 °C.
(§2) PK parameters were calculated using a non-compartmental approach from the average concentration values, using Phoenix WinNonlin software (Certara, St. Louis, MO, USA). The first-order elimination rate constant (λz) was calculated by linear regression of log concentration versus time. The area under the mean serum and tissue concentration versus time curve (AUC0⟶t) was calculated from zero to the last concentration point using the linear trapezoidal rule as (1) AUC0→t=∑i=1nCi+Ci+1/2·(ti+1−ti) where Ci is the concentration of the compound.
(§3) The area under the first-moment curve (AUMC0⟶t) was estimated by calculation of the total area under the first-moment curve:(2) AUMC0→t=∑i=1n((ti·Ci+ti+1·Ci+1)/2)·(ti+1−ti) where ti is the […].
(§4) Mean residence time (MRT) was calculated as (3) MRT=AUMC0→t/AUC0→t
Systemic clearance (Cl) was calculated as (4) Cl=Div/AUC0→t
The volume of distribution at steady state (Vss) was calculated as (5) Vss=Div⋅AUMC0→t/(AUC0→t)^2

A short description of data set [2]: in vivo. The settings on record: for tmax: DAI in suspension, i.p. 50 mg/kg, rat serum. On the procedure: as §1
The second study was conducted in 48 animals to assess DAI tissue penetration and bioavailability. […] Animals were deeply anaesthetized by i.p. injections of 50 mg/kg ketamine plus 8 mg/kg xylazine before sacrifice. First, the blood was collected by retro-orbital puncture, and the blood samples were centrifuged to obtain serum. The serum samples were frozen in a freezer at −80 °C. A whole-body saline perfusion was then performed after wide laparotomy when the heart was exposed, and the tip of the needle was inserted into the left ventricle and the right atrium was cut to allow efflux of blood. This procedure allowed the blood from all tissues to be washed out to determine the amount of DAI in the tissue, excluding its content in the blood. Following the animals’ euthanasia, the following samples were collected: whole brain, whole eyes, liver lobe, abdominal fat, one kidney, whole spleen, one testis, and selected parts of heart and lungs. The brain was cut between hemispheres in halves; one half was weighed, inserted into 2 mL of SDS-tris lysing buffer (100 mM tris buffer, 10% glycerol, 1% sodium dodecyl sulfate), and homogenized with a tissue homogenizer. The other half of the brain, the homogenates, and all other tissue samples collected were immediately shock-frozen in liquid nitrogen and stored at −80 °C for future analysis.
as §2, §3, §4

The conditions of data set [3]: healthy premenopausal women, cited from earlier work.
Where [4] appears, read: male, rat, in vivo, ip, 50 mg/kg.

In data set [1], `O=c1c(-c2ccc(O)cc2)coc2cc(O)ccc12` [DAI in Suspension, 7-hydroxy-3-(4-hydroxyphenyl)-4H-chromen-4-one] gave an AUC of 1580 ng·h/mL, a C0 of 6160 ng/mL, an MRT of 4.29 h and a clearance of 211 mL/min/kg. Also, the half-life in data set [1] is 3.83 h. Moreover, the tmax in data set [2] (50 mg/kg) stood at 0.75 h. In data set [2] (male, rat, in vivo), this compound had a bioavailability of 28.2%. In data set [2] (setting [4]), this compound had an AUC of 1110 ng·h/mL, a CL/F of 775 mL/min/kg, an MRT of 3.63 h and a Vd/F of 220 L/kg. The compound further displayed a half-life in data set [2] (setting [4]) of 3.41 h. The compound further returned a Cmax in data set [2] (male, rat, in vivo, ip, 50 mg/kg, Cmax) of 173 ng/mL. In data set [2] (male, rat, in vivo, ip, 50 mg/kg, tmax), this compound returned a tmax not above 0.75 h. In addition, the “Bioavailability of DAI” value in data set [3] (first value of '5.15% vs. 8.7%', at higher intakes) is 5.15%. Also, the “Bioavailability of DAI” value in data set [3] (second (comparison) value of '5.15% vs. 8.7%') is on record as 8.7%.

Source of the values: paper PMC7076374, “Improved Pharmacokinetics and Tissue Uptake of Complexed Daidzein in Rats” (Pharmaceutics, 2020).
